Here are results for 10 compounds from patent publication US20120202856A1, “SUBSTITUTED BENZIMDAZOLE DERIVATIVES USEFUL AS TRPM8 RECEPTOR MODULATORS” (priority 2011, published 2012).

Molecules are shown by their SMILES. “And” between values parts separate entries of the source, which are not always exact repeats. Identical values can stand only once. Counter-ions that a name gives are not always drawn. Like-named read-outs stand apart in the source and are kept apart here.

The target in one experiment is T1, canine TRPM8 (Canis lupus familiaris, UniProt Q1A7N1).
T1 construct: expressed in transfected cells
T1 sequence (Q1A7N1 1-1104): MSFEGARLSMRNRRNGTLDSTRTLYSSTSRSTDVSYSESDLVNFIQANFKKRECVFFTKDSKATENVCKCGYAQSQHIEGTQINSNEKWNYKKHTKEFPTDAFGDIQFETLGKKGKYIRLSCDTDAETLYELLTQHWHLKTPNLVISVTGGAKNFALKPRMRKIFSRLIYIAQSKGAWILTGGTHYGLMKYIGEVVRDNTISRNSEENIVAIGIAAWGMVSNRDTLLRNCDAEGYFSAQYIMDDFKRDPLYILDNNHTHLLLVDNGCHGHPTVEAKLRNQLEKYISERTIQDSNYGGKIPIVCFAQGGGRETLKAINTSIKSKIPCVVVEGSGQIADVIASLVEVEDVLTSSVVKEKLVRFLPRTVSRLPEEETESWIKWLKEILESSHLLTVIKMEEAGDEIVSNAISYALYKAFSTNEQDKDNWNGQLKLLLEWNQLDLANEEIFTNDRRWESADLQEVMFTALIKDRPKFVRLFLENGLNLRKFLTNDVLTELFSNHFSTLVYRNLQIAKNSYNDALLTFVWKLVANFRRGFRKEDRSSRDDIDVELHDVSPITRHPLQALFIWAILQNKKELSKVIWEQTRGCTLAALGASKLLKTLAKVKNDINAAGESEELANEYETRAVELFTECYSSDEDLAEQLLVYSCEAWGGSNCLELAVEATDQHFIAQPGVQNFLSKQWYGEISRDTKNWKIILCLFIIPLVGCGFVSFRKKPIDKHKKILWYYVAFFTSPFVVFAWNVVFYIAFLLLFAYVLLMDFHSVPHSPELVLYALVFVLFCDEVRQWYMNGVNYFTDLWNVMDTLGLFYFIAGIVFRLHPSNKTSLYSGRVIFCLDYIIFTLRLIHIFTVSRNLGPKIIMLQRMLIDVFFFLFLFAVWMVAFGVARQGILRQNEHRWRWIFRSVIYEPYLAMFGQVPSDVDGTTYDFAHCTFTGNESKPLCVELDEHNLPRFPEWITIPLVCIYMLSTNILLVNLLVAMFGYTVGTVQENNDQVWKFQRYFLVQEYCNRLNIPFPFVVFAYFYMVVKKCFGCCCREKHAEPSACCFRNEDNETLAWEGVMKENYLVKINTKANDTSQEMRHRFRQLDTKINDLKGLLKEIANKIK
The experiment in a line: In Vitro Canine TRPM8 Functional Assay (intracellular Ca2+ fluorescence, icilin activation, HEK293 cells). In kind it is cell-based. As to conditions: for IC50: HEK293 cells expressing canine TRPM8, icilin activation, individually measured values (batches/salt forms), read-out: IC50 (nM), in vitro TRP M8 Activity; for % Inh (%) @0.2 μM, in vitro TRP M8 Activity: 0.2 μM test compound; for % Inh (%) @0.2 μM, in vitro TRP M8 Activity / inhibition at 0.2 µM: individually measured values. The method, boiled down:
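Inhibition of icilin-evoked calcium influx measured by Calcium 3 fluorescence (FLIPR or FDSS) in canine TRPM8 HEK293 cells. After basal subtraction, data expressed as percent of maximum; quadruplicate means fitted by sigmoidal dose–response to give IC50.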

In experiment [1] the test system is icilin-induced “wet-dog” shakes (WDS). The experiment in a line: Inhibition of Icilin-Induced “Wet-Dog” Shakes in Rats. Conditions: po; for inhibition in vivo at 10 mg/kg / inhibition in vivo at 3 mg/kg: read-out: Icilin % Inhibition @1.5 hrs. In kind it is in vivo, Sprague Dawley rats. The method, then:
The test compound was administered in 10% hydroxypropyl-β-cyclodextrin (HP-13-CD), p.o., 60 min before icilin.
% Inhibition=[1−(test compound WDS count/vehicle WDS count)]×100.

The subject of experiment [2] is CCI-induced cold hypersensitivity. The experiment in a line: Chronic Constriction Injury (CCI)-Induced Model of Neuropathic Pain, Acetone-Induced Hypersensitivity. Type of experiment: in vivo, Sprague-Dawley rats. As to conditions: rat, p.o., acetone-induced withdrawals, 2 h after administration. The text has this: Male Sprague-Dawley rats (225-450 g; n=5-8/treatment) were used to evaluate the ability of test compounds to reverse CCl-induced cold hypersensitivity. Four loose ligatures of 4-0 chromic gut were surgically placed around the left sciatic nerve under inhalation anesthesia as described by Bennett et al. (BENNETT, G. J., et al., “A peripheral mononeuropathy in rat that produces disorder of pain sensation like those seen in man”, Pain, 1988, pp 87-107, Vol. 33(1)). Fourteen to 35 days following CCl surgery, subjects were placed in elevated observation chambers containing wire mesh floors, and five applications of acetone (0.05 mL/application separated by approximately 5 min) were spritzed onto the plantar surface of the paw using a multidose syringe. An abrupt withdrawal or lifting of the paw was considered a positive response. The number of positive responses was recorded for each rat over the five trials. […] The number of withdrawals was re-determined at 2 hr after compound administration. […] Results are presented below as a percent inhibition of […], which was calculated for each subject and then averaged by treatment as follows: […]

Another experiment relates to rats. As to conditions: cited from earlier work.
The next experiment deals with humans. Conditions: 5-10 mg ingested orally; cited from earlier work.
The mark [3] stands for this setting: HEK293, 0.2 μM test compound, read-out: % Inh (%) @0.2 μM, in vitro TRP M8 Activity.
Where [4] appears, read: rat, p.o., dose 3 mg/kg, 1.5 hrs.

In the case of `Cl.Cn1nc(C(C)(C)C)c(Cl)c1-c1nc2cc(-c3c(F)cccc3F)ccc2[nH]1` [Compound 85, 2-(5-tert-Butyl-4-chloro-2-methyl-2H-pyrazol-3-yl)-5-(2,6-difluoro-phenyl)-1H-benzimidazole hydrochloride], at canine TRPM8, the IC50 (in general, the concentration at which inhibition is half-maximal) is 3.7 nM and 4.6 nM and 3.8 nM. Moreover, the inhibition in vivo at 10 mg/kg in experiment [1] (rat, p.o., dose 10 mg/kg, 1.5 hrs) was 96.4%. Besides, in experiment [2], the “CCI % Inhibition @ 2 h” value came out at 34.3%.

For `Cl.Cn1nc(C(C)(C)C)c(Cl)c1-c1nc2cc(-c3ccccc3F)ccc2[nH]1` [Compound 90, 2-(5-tert-Butyl-4-chloro-2-methyl-2H-pyrazol-3-yl)-5-(2-fluoro-phenyl)-1H-benzimidazole hydrochloride], the IC50 at canine TRPM8 was 7.4 nM and 5 nM and 9.3 nM. For the same compound, the inhibition in vivo at 5.6 mg/kg in experiment [1] (rat, 1.5 hrs) was 52.7%. For the same compound, the “CCI % Inhibition @ 2 h” value in experiment [2] is reported as 22.5%.

As for `O=C1NC(c2cccc([N+](=O)[O-])c2)=CCN1c1ccccc1O` [Icilin], the “behaviour caused in initial in vivo testing” value in the experiment with rats is given as ““wet-dog” shakes”. Besides, the “coldness in the mouth, pharynx and chest lasting” value in the experiment on humans is 30 to 60 min.

Take `CC(C)(C)c1cc(-c2nc3cc(-c4ccccc4OC(F)(F)F)ccc3[nH]2)on1.[Na]` [Compound 10, 2-(3-tert-Butylisoxazol-5-yl)-5-(2-trifluoromethoxyphenyl)-1H-benzimidazole sodium salt]: the IC50 at canine TRPM8 was 12 nM and 15 nM and 10 nM. Further, in experiment [1] (rat, dose 30 mg/kg, 1.5 hrs), the inhibition in vivo at 30 mg/kg turned out to be 97.3%. Also, in experiment [2], the “CCI % Inhibition @ 2 h” value is 57.1%.

For the compound `Cn1nc(C(C)(C)C)c(C#N)c1-c1nc2cc(-c3ccccc3Cl)cc(Cl)c2[nH]1.[Na]` [Compound 168, 3-tert-Butyl-5-[7-chloro-5-(2-chloro-phenyl)-1H-benzimidazol-2-yl]-1-methyl-1H-pyrazole-4-carbonitrile sodium salt], the “% Inh (%) @0.2 μM, in vitro TRP M8 Activity” value at canine TRPM8 (sodium salt) was 101% and 100% (2×). For the same compound, the inhibition at 0.2 µM at canine TRPM8 (setting [3]) is 99%. The half-maximal inhibitory concentration (IC50) on canine TRPM8 was 2.3 nM and 7 nM and 4.3 nM and 4.7 nM and 3.2 nM. In experiment [1] (setting [4]), the inhibition in vivo at 3 mg/kg was 86%. Moreover, the “CCI % Inhibition @ 2 h” value in experiment [2] turned out to be 74.3%.

On to `Cn1nc(C(C)(C)C)c(Cl)c1-c1nc2cc(-c3c(F)cccc3C(F)(F)F)cc(C(F)(F)F)c2[nH]1` [Compound 125, 2-(5-tert-Butyl-4-chloro-2-methyl-2H-pyrazol-3-yl)-5-(2-fluoro-6-trifluoromethyl-phenyl)-7-trifluoromethyl-1H-benzimidazole sodium salt], for which the inhibition at 0.2 µM at canine TRPM8 (HEK293, read-out: % Inh (%) @0.2 μM, in vitro TRP M8 Activity, 0.2 μM test compound) worked out at 100%. In addition, the IC50 on canine TRPM8 was 3.2 nM and 1.7 nM. In addition, in experiment [1] (Rattus norvegicus, 1.5 h), the inhibition in vivo at 3 mg/kg worked out at 24.6%.

Take `Cc1cc(-c2ccccc2C(F)(F)F)cc2nc(-c3cc(C(C)(C)C)nn3C)[nH]c12` [Compound 79, 2-(5-tert-Butyl-2-methyl-2H-pyrazol-3-yl)-7-methyl-5-(2-trifluoromethylphenyl)-1H-benzimidazole hydrochloride]: the half-inhibitory concentration (IC50) at canine TRPM8 was 5 nM and 14.4 nM. Also, the inhibition in vivo at 5.6 mg/kg in experiment [1] (rat, 1.5 hrs) came out at 20.1%.

In the case of `Cc1c(C(C)(C)C)nn(C)c1-c1nc2cc(-c3ccccc3C(F)(F)F)ccc2[nH]1` [Compound 76, 2-(5-tert-Butyl-2,4-dimethyl-2H-pyrazol-3-yl)-5-(2-trifluoromethylphenyl)-1H-benzimidazole sodium salt], at canine TRPM8, the 50% inhibitory concentration (IC50) was found to be 6 nM. In experiment [1] (Rattus norvegicus, 1.5 h), the inhibition in vivo at 10 mg/kg was 98.6%.

`Cl.Cn1nc(C(C)(C)C)c(Cl)c1-c1nc2cc(-c3ccccc3C(F)(F)F)cc(Cl)c2[nH]1` [Compound 116, 2-(5-tert-Butyl-4-chloro-2-methyl-2H-pyrazol-3-yl)-7-chloro-5-(2-trifluoromethyl-phenyl)-1H-benzimidazole hydrochloride]: on canine TRPM8 (hydrochloride), the “% Inh (%) @0.2 μM, in vitro TRP M8 Activity” value stood at 100%. The inhibition at 0.2 µM at canine TRPM8 (setting [3]) was 99%. Moreover, at canine TRPM8, the IC50 was 2.6 nM and 5.8 nM and 5.5 nM. Further, the inhibition in vivo at 3 mg/kg in experiment [1] (setting [4]) worked out at 47.7%.

Consider `Cc1c(C(C)(C)C)nn(C)c1-c1nc2cc(-c3ccccc3F)cc(Cl)c2[nH]1` [Compound 133, 2-(5-tert-Butyl-2,4-dimethyl-2H-pyrazol-3-yl)-7-chloro-5-(2-fluoro-phenyl)-1H-benzimidazole hydrochloride], for which the inhibition at 0.2 µM on canine TRPM8 (setting [3]) was 99%. The concentration for half-maximal inhibition (IC50) at canine TRPM8 was 12.6 nM and 10.2 nM. Besides, the inhibition in vivo at 3 mg/kg in experiment [1] (setting [4]) amounted to 4.6%.
